Assay results from patent publication US20130302282A1, “Inhibitors of Hepatitis C Virus” (priority 2010, published 2013).
pEC50: −log10 of the molar value. Read-outs that look alike come from different tables or passages of the source.

Columns and labels:
HCV 1a = HCV 1a replicon assay; type: cell-based; conditions: Hepatitis C virus; class symbol; cell marked (HCV genotype 1a replicon); read-out: Inhibition of HCV genotype 1a replicon
Description: Compounds of the invention can inhibit multiple genotypes of HCV selected but not limited to 1a, 1h, 2a, 3a, and 4a. The EC50s are measured in the corresponding replicon assays that are similar to HCV 1b replicon assay as described above.
The biological activity against HCV 1b, 1a, or 2a is indicated as being *, **, ***, or ****, which corresponds to EC50 ranges of EC50>1000 nM, 100 nM<EC50≦1000 nM, 10 nM<EC50≦100 nM, or EC50≦10 nM, respectively. The biological activity against HCV NS5B C316Y or S365A mutant is indicated as being […], which corresponds to EC50 ranges of EC50>1000 nM, 200 nM<EC50≦1000 nM, […], respectively.

[1] = system: 1b_Huh-Luc/Neo-ET cell line (bicistronic genotype 1b replicon in Huh 7 cells); test: HCV 1b replicon assay, luciferase readout; type: cell-based, HCV genotype 1b
Description: Biological activity of the compounds of the invention was determined using an HCV replicon assay. The 1b_Huh-Luc/Neo-ET cell line persistently expressing a bicistronic genotype 1b replicon in Huh 7 cells was obtained from ReBLikon GMBH. This cell line was used to test compound inhibition using luciferase enzyme activity readout as a measurement of compound inhibition of replicon levels.
On Day 1 (the day after plating), each compound is added in triplicate to the cells. Plates incubated for 72 […] prior to running the luciferase assay. Enzyme activity was measured using a Bright-Glo Kit (cat. number E2620) manufactured by Promega Corporation. The following equation was used to generate a percent control value for each compound.
%Control=(Average Compound Value/Average Control)*100
The EC50 value was determined using GraphPad Prism and the following equation:
Y=Bottom+(Top−Bottom)/(1+10̂((LogIC50−X)*HillSlope))
EC50 values of compounds are repeated several times in the replicon assay.

[2] = Hepatitis C virus, Huh-7, 1b_Huh-Luc/Neo-ET cell line, read-out: EC50, half-maximal inhibition of HCV 1b replication
[3] = Hepatitis C virus, Huh-7, class symbol, HCV genotype 1b replicon, read-out: Inhibition of HCV genotype 1b replicon
[4] = class symbol, HCV genotype 1b replicon, read-out: Inhibition of HCV genotype 1b replicon

SMILES | pEC50 (HCV 1a) | pEC50 [1, 2] | pEC50 [1, 3] | pEC50 [1, 4]
CNC(=O)c1c(-c2ccc(F)cc2)oc2cc3c(cc12)[C@@H](C)N1CCC[C@H]1CN3S(C)(=O)=O (single isomer, unassigned) [Compound B122] | < 6.00 | – | – | –
CNC(=O)c1c(-c2ccc(Oc3ccc(F)cc3)cc2)oc2cc3c(cc12)[C@H]1C[C@H]1CCN3S(C)(=O)=O (single isomer, unassigned) [Compound B143] | 6.00 to 7.00 | – | – | –
CNC(=O)c1c(-c2ccc(Oc3ccc(F)cc3)cc2)oc2cc3c(cc12)[C@@H]1C[C@@H]1CCN3S(C)(=O)=O (single isomer, unassigned) [Compound B146] | 7.00 to 8.00 | 7.00 to 8.00 | – | –
CNC(=O)c1c(-c2ccc(F)cc2)oc2cc3c(cc12)CCCCN3C(C)=O [Compound B80] | < 6.00 | – | – | –
CNC(=O)c1c(-c2ccc(F)cc2)oc2cc3c(cc12)/C(C)=C\CCCN3S(C)(=O)=O [Compound B81] | 6.00 to 7.00 | – | – | –
CNC(=O)c1c(-c2ccc(F)cc2)oc2cc3c(cc12)C(=O)CCCCN3S(C)(=O)=O [Compound B82] | 6.00 to 7.00 | – | – | –
CNC(=O)c1c(-c2ccc(F)cc2)oc2cc3c(cc12)CCCCN3S(N)(=O)=O [Compound B102] | 6.00 to 7.00 | – | – | –
CNC(=O)c1c(-c2ccc(F)cc2)oc2cc3c(cc12)CCCCN3S(=O)(=O)N(C)C [Compound B103] | 6.00 to 7.00 | – | – | –
CNC(=O)c1c(-c2ccc(F)cc2)oc2cc3c(cc12)C1(CCCCN3S(C)(=O)=O)CC1 [Compound B104] | 6.00 to 7.00 | – | – | –
CNC(=O)c1c(-c2ccccc2)nn2cc3c(cc12)C(C)CCCN3S(C)(=O)=O (centres unmarked) [Compound B105] | 6.00 to 7.00 | – | – | –
CNC(=O)c1c(-c2ccc(F)cc2)oc2cc3c(cc12)C(C)N(C(C)=O)CCN3S(C)(=O)=O (centres unmarked) [Compound B110] | 6.00 to 7.00 | – | – | –
CNC(=O)c1c(-c2ccc(Oc3ccc(F)cc3)cc2)oc2cc3c(cc12)[C@@H](C)OCCN3S(C)(=O)=O [Compound B117] | 6.00 to 7.00 | – | – | –
CNC(=O)c1c(-c2ccc(Oc3ccc(F)cc3)cc2)oc2cc3c(cc12)C1CC1CCN3S(C)(=O)=O (centres unmarked) [Compound B140] | 6.00 to 7.00 | – | – | –
CNC(=O)c1c(-c2ccc(Oc3ccc(F)cc3)cc2)oc2cc3c(cc12)C1(CCCN3S(C)(=O)=O)CC1 [Compound B141] | 6.00 to 7.00 | – | – | –
[2H]C([2H])([2H])NC(=O)c1c(-c2ccc(F)cc2)oc2cc3c(cc12)C(C)N(C)CCN3S(C)(=O)=O (centres unmarked) [Compound B152] | 6.00 to 7.00 | – | – | –
CNC(=O)c1c(-c2ccc(F)cc2)oc2cc3c(cc12)CCc1ccccc1CN3S(C)(=O)=O [Compound B200] | – | 7.00 to 8.00 | 7.00 to 8.00 | –
CC1OCCN(S(C)(=O)=O)c2cc3oc(-c4ccc(Oc5ccc(F)cc5)cc4)c(-c4ncc[nH]4)c3cc21 (centres unmarked) [Compound B202] | – | 7.00 to 8.00 | 7.00 to 8.00 | –
CNC(=O)c1c(-c2ccc(F)cc2)oc2cc3c(cc12)C(C)OC(CN1CCOCC1)CN3S(C)(=O)=O (centres unmarked) [Compound B205] | – | 7.00 to 8.00 | 7.00 to 8.00 | –
CNC(=O)c1c(-c2ccc(Oc3ccc(F)cc3)cc2)oc2cc3c(cc12)[C@@H](C)O[C@@H](CS(C)(=O)=O)CN3S(C)(=O)=O [Compound B206] | – | – | 6.00 to 7.00 | –
CNC(=O)c1c(-c2ccc(F)cc2)oc2cc3c(cc12)C(C)O[C@@H](c1ccc(F)cc1)CN3S(C)(=O)=O (some centres unmarked) [Compound B210] | – | 7.00 to 8.00 | 7.00 to 8.00 | –
CNC(=O)c1c(-c2ccc(F)cc2)oc2cc3c(cc12)[C@@H](C)O[C@@H](CO)CN3S(C)(=O)=O [Compound B211] | – | – | < 6.00 | –
CNC(=O)c1c(-c2ccc(F)cc2)oc2cc3c(cc12)[C@@H](C)O[C@@H](CS(C)(=O)=O)CN3S(C)(=O)=O [Compound B213] | – | – | < 6.00 | –
CNC(=O)c1c(-c2ccc(F)cc2)oc2cc3c(cc12)[C@H](C)O[C@H](CS(C)(=O)=O)CN3S(C)(=O)=O [Compound B215] | – | 7.00 to 8.00 | – | 7.00 to 8.00
CNC(=O)c1c(-c2ccc(Oc3ccc(F)cc3)cc2)oc2cc3c(cc12)[C@H](C)O[C@H](CS(C)(=O)=O)CN3S(C)(=O)=O [Compound B216] | – | 7.00 to 8.00 | – | 7.00 to 8.00
CNC(=O)c1c(-c2ccc(F)cc2)oc2cc3c(cc12)[C@@H](C)O[C@H](CO)CN3S(C)(=O)=O [Compound B217] | – | 7.00 to 8.00 | 7.00 to 8.00 | –

SMILES | pEC50 (HCV 1a) | pEC50 [1, 2] | pEC50 [1, 3] | pEC50 [1, 4]
CNC(=O)c1c(-c2ccc(F)cc2)oc2cc3c(cc12)C(C)OC(CN=[N+]=[N-])CN3S(C)(=O)=O (centres unmarked) [Compound B218] | – | ≥ 8.00 | > 8.00 | –
CNC(=O)c1c(-c2ccc(F)cc2)oc2cc3c(cc12)C(C)OCC(CO)N3S(C)(=O)=O (centres unmarked) [Compound B219] | – | 7.00 to 8.00 | 7.00 to 8.00 | –
CNC(=O)c1c(-c2ccc(F)cc2)oc2cc3c(cc12)C(C)OC(CNS(C)(=O)=O)CN3S(C)(=O)=O (centres unmarked) [Compound B220] | – | 7.00 to 8.00 | 7.00 to 8.00 | –
CNC(=O)c1c(-c2ccc(F)cc2)oc2cc3c(cc12)C(C)OC(CNC(=O)OC)CN3S(C)(=O)=O (centres unmarked) [Compound B221] | – | ≥ 8.00 | > 8.00 | –
CNC(=O)c1c(-c2ccc(F)cc2)oc2cc3c(cc12)C(C)OC(CN(C)C)CN3S(C)(=O)=O (centres unmarked) [Compound B222] | – | 7.00 to 8.00 | 7.00 to 8.00 | –
CNC(=O)c1c(-c2ccc(F)cc2)oc2cc3c(cc12)C(C)OC(C(=O)N(C)C)CN3S(C)(=O)=O (centres unmarked) [Compound B223] | – | 7.00 to 8.00 | 7.00 to 8.00 | –
CNC(=O)c1c(-c2ccc(Oc3ccc(F)cc3)cc2)oc2cc3c(cc12)[C@H](C)O[C@@H](CS(C)(=O)=O)CN3S(C)(=O)=O [Compound B224] | – | 7.00 to 8.00 | 7.00 to 8.00 | –
CNC(=O)c1c(-c2ccc(F)cc2)oc2cc3c(cc12)C(C)OCC(CS(C)(=O)=O)N3S(C)(=O)=O (centres unmarked) [Compound B225] | – | 7.00 to 8.00 | 7.00 to 8.00 | –
CNC(=O)c1c(-c2ccc(F)cc2)oc2cc3c(cc12)C(C)OC(CC#N)CN3S(C)(=O)=O (centres unmarked) [Compound B226] | – | ≥ 8.00 | > 8.00 | –
CNC(=O)c1c(-c2ccc(F)cc2)oc2cc3c(cc12)C(C)OC(C(=O)N1CCCC1)CN3S(C)(=O)=O (centres unmarked) [Compound B227] | – | 7.00 to 8.00 | 7.00 to 8.00 | –
CNC(=O)c1c(-c2ccc(F)cc2)oc2cc3c(cc12)C(C)OC(C(=O)N1CCOCC1)CN3S(C)(=O)=O (centres unmarked) [Compound B228] | – | 7.00 to 8.00 | 7.00 to 8.00 | –
CNC(=O)c1c(-c2ccc(F)cc2)oc2cc3c(cc12)C(C)OC(C(=O)NC)CN3S(C)(=O)=O (centres unmarked) [Compound B229] | – | 7.00 to 8.00 | 7.00 to 8.00 | –
CNC(=O)c1c(-c2ccc(F)cc2)oc2cc3c(cc12)[C@H](C)O[C@H](CCO)CN3S(C)(=O)=O [Compound B230] | – | 7.00 to 8.00 | 7.00 to 8.00 | –
CNC(=O)c1c(-c2ccc(F)cc2)oc2cc3c(cc12)[C@H](C)O[C@@H](CCO)CN3S(C)(=O)=O [Compound B231] | – | 7.00 to 8.00 | 7.00 to 8.00 | –
CNC(=O)c1c(-c2ccc(F)cc2)oc2cc3c(cc12)[C@H](C)O[C@H](CCS(C)(=O)=O)CN3S(C)(=O)=O [Compound B233] | – | ≥ 8.00 | > 8.00 | –
CNC(=O)c1c(-c2ccc(F)cc2)oc2cc3c(cc12)[C@H](C)O[C@@H](CCS(C)(=O)=O)CN3S(C)(=O)=O [Compound B234] | – | 7.00 to 8.00 | 7.00 to 8.00 | –
CNC(=O)c1c(-c2ccc(Oc3ccc(F)cc3)cc2)oc2cc3c(cc12)C(C)OC(CCO)CN3S(C)(=O)=O (centres unmarked) [Compound B235] | – | 7.00 to 8.00 | 7.00 to 8.00 | –
CNC(=O)c1c(-c2ccc(Oc3ccc(F)cc3)cc2)oc2cc3c(cc12)C(C)OC(CCS(C)(=O)=O)CN3S(C)(=O)=O (centres unmarked) [Compound B236] | – | ≥ 8.00 | > 8.00 | –
CNC(=O)c1c(-c2ccc(Oc3ccc(F)cc3)cc2)oc2cc3c(cc12)[C@H](C)O[C@H](COC(=O)[C@@H](N)C(C)C)CN3S(C)(=O)=O [Compound B237] | – | ≥ 8.00 | > 8.00 | –
CNC(=O)c1c(-c2ccc(Oc3ccc(F)cc3)cc2)oc2cc3c(cc12)[C@H](C)O[C@H](COC(=O)[C@H](C)N)CN3S(C)(=O)=O [Compound B238] | – | ≥ 8.00 | > 8.00 | –
CNC(=O)c1c(-c2ccc(Oc3ccc(F)cc3)cc2)oc2cc3c(cc12)[C@H](C)O[C@H](COC(=O)CN(C)C)CN3S(C)(=O)=O [Compound B239] | – | ≥ 8.00 | > 8.00 | –
CNC(=O)c1c(-c2ccc(Oc3ccc(F)cc3)cc2)oc2cc3c(cc12)[C@H](C)O[C@H](COP(=O)(O)O)CN3S(C)(=O)=O [Compound B240] | – | ≥ 8.00 | > 8.00 | –
CNC(=O)c1c(-c2ccc(Oc3ccc(F)cc3)cc2)oc2cc3c(cc12)[C@H](C)O[C@@H](CO)CN3S(C)(=O)=O [Compound B241] | – | 7.00 to 8.00 | 7.00 to 8.00 | –
CNC(=O)c1c(-c2ccc(F)cc2)nn2cc3c(cc12)C(C)OC(CO)CN3S(C)(=O)=O (centres unmarked) [Compound B242] | – | – | 6.00 to 7.00 | –
